Measurements published in patent US8163771B2, “11 β-HSD1 modulators” (Exelixis, Inc., priority 2008, dated 2012).

molecular target: T1, recombinant human 11 β-HSD1 (Homo sapiens, UniProt P28845); experiment: 11 β-HSD1 SPA Assay (Scintillation Proximity Assay); assay type: biochemical
T1 construct: made in house; host or cells: E. coli
Procedure, shortened: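 E. coli-expressed human enzyme (30-100 nM) with tritiated cortisone 40 nM and NADPH 1 mM in HEPES buffer pH7.4, 2 hours at room temperature. Stopped with protein A SPA beads carrying anti-cortisol antibody and glycyrrhetinic acid; counted after overnight incubation. IC50 from percent inhibition between no-enzyme and no-compound signals.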

T1 sequence (P28845 whole entry): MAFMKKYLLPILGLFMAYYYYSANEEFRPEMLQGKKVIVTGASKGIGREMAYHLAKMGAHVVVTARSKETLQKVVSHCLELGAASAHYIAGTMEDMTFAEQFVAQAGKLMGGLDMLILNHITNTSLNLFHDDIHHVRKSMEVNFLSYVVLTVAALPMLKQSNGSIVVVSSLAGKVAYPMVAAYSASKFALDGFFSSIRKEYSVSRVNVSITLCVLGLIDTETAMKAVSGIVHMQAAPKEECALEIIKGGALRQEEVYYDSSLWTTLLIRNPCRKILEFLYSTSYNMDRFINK

COCCNC(=O)c1ccc(N2[C@@H]3CC[C@H]2C[C@@H](NC(=O)C(C)(C)Oc2ccc(Cl)cc2Cl)C3)nc1 [Example 80, 6-[3-endo-({2-[(2,4-dichlorophenyl)oxy]-2-methylpropanoyl}amino)-8-azabicyclo[3.2.1]oct-8-yl]-N-[2-(methyloxy)ethyl]pyridine-3-carboxamide] and CC(=O)c1ccc(N2[C@@H]3CC[C@H]2C[C@@H](NC(=O)C(C)(C)Oc2ccc(Cl)cc2Cl)C3)nc1 [Example 87, N-[8-(5-acetylpyridin-2-yl)-8-azabicyclo[3.2.1]oct-3-endo-yl]-2-[(2,4-dichlorophenyl)oxy]-2-methylpropanamide] cannot be ordered by IC50: less than 200 nM for the first, less than 200 nM for the second.

CCC(Oc1ccc(Cl)cc1)C(=O)N[C@H]1C[C@H]2CC[C@@H](C1)N2c1ccc(C(=O)NCCOC)cn1 (stereo partly drawn) [Example 81, 6-[3-endo-({2-[(4-chlorophenyl)oxy]butanoyl}amino)-8-azabicyclo[3.2.1]oct-8-yl]-N-[2-(methyloxy)ethyl]pyridine-3-carboxamide] and COCCNC(=O)c1ccc(N2[C@@H]3CC[C@H]2C[C@@H](NC(=O)C(C)(C)Oc2ccc(Cl)cc2)C3)nc1 [Example 89, 6-[3-endo-({2-[(4-chlorophenyl)oxy]-2-methylpropanoyl}amino)-8-azabicyclo[3.2.1]oct-8-yl]-N-[2-(methyloxy)ethyl]pyridine-3-carboxamide] cannot be ordered by IC50: less than 2000 nM for the first, less than 200 nM for the second.

CC(Oc1ccc(Cl)cc1Cl)C(=O)N[C@H]1C[C@H]2CC[C@@H](C1)N2c1ccc(C(=O)NC2CC2)cn1 (stereo partly drawn) [Example 82, N-cyclopropyl-6-[3-endo-({2-[(2,4-dichlorophenyl)oxy]propanoyl}amino)-8-azabicyclo[3.2.1]oct-8-yl]pyridine-3-carboxamide] and CC(C)(Oc1cc(F)c(Cl)cc1Cl)C(=O)N[C@H]1C[C@H]2CC[C@@H](C1)N2c1ccc(C(=O)NC2CC2)cn1 [Example 91, N-cyclopropyl-6-[3-endo-({2-[(2,4-dichloro-5-fluorophenyl)oxy]-2-methylpropanoyl}amino)-8-azabicyclo[3.2.1]oct-8-yl]pyridine-3-carboxamide] cannot be ordered by IC50: less than 200 nM for the first, less than 200 nM for the second.

CC(C)(Oc1ccc(Cl)c(Cl)c1)C(=O)N[C@H]1C[C@H]2CC[C@@H](C1)N2c1ccc(C(=O)NCC(F)(F)F)cn1 [Example 83, 6-[3-endo-({2-[(3,4-dichlorophenyl)oxy]-2-methylpropanoyl}amino)-8-azabicyclo[3.2.1]oct-8-yl]-N-(2,2,2-trifluoroethyl)pyridine-3-carboxamide] and CC(C)(Oc1ccc(F)c(Cl)c1)C(=O)N[C@H]1C[C@H]2CC[C@@H](C1)N2c1ccc(C(=O)NCC(F)(F)F)cn1 [Example 93, 6-[3-endo-({2-[(3-chloro-4-fluorophenyl)oxy]-2-methylpropanoyl}amino)-8-azabicyclo[3.2.1]oct-8-yl]-N-(2,2,2-trifluoroethyl)pyridine-3-carboxamide] cannot be ordered by IC50: less than 200 nM for the first, less than 200 nM for the second.

CC(C)NC(=O)c1ccc(N2[C@@H]3CC[C@H]2C[C@@H](NC(=O)C(C)(C)Oc2ccc(Cl)c(F)c2)C3)nc1 [Example 84, 6-[3-endo-({2-[(4-chloro-3-fluorophenyl)oxy]-2-methylpropanoyl}amino)-8-azabicyclo[3.2.1]oct-8-yl]-N-(1-methylethyl)pyridine-3-carboxamide] and CC(C)NC(=O)c1ccc(N2[C@@H]3CC[C@H]2C[C@@H](NC(=O)C(C)(C)Oc2ccc(F)c(Cl)c2)C3)nc1 [Example 95, 6-[3-endo-({2-[(3-chloro-4-fluorophenyl)oxy]-2-methylpropanoyl}amino)-8-azabicyclo[3.2.1]oct-8-yl]-N-(1-methylethyl)pyridine-3-carboxamide] cannot be ordered by IC50: less than 200 nM for the first, less than 200 nM for the second.

CC(C)NC(=O)c1ccc(N2[C@@H]3CC[C@H]2C[C@@H](NC(=O)C(C)(C)Oc2ccc(F)c(F)c2)C3)nc1 [Example 85, 6-[3-endo-({2-[(3,4-difluorophenyl)oxy]-2-methylpropanoyl}amino)-8-azabicyclo[3.2.1]oct-8-yl]-N-(1-methylethyl)pyridine-3-carboxamide] and CC(C)(Oc1ccc(Cl)cc1F)C(=O)N[C@H]1C[C@H]2CC[C@@H](C1)N2c1ccc(C(=O)NCC(F)(F)F)cn1 [Example 105, 6-[3-endo-({2-[(4-chloro-2-fluorophenyl)oxy]-2-methylpropanoyl}amino)-8-azabicyclo[3.2.1]oct-8-yl]-N-(2,2,2-trifluoroethyl)pyridine-3-carboxamide] cannot be ordered by IC50: less than 2000 nM for the first, less than 200 nM for the second.

CC(C)(Oc1ccc(Cl)cc1Cl)C(=O)N[C@H]1C[C@H]2CC[C@@H](C1)N2c1ncc(C(=O)NC2CC2)cc1Cl [Example 86, 5-chloro-N-cyclopropyl-6-[3-endo-({2-[(2,4-dichlorophenyl)oxy]-2-methylpropanoyl}amino)-8-azabicyclo[3.2.1]oct-8-yl]pyridine-3-carboxamide] and CC(C)(Oc1ccc(Cl)cc1Cl)C(=O)N[C@H]1C[C@H]2CC[C@@H](C1)N2c1ccc(NC(=O)C2CC2)cn1 [Example 92, N-{6-[3-endo-({2-[(2,4-dichlorophenyl)oxy]-2-methylpropanoyl}amino)-8-azabicyclo[3.2.1]oct-8-yl]pyridin-3-yl}cyclopropanecarboxamide] cannot be ordered by IC50: less than 200 nM for the first, less than 200 nM for the second.

CC(C)(Oc1ccc(Cl)cc1Cl)C(=O)N[C@H]1C[C@H]2CC[C@@H](C1)N2c1ccc(N)cn1 [Example 88, N-[8-(5-aminopyridin-2-yl)-8-azabicyclo[3.2.1]oct-3-endo-yl]-2-[(2,4-dichlorophenyl)oxy]-2-methylpropanamide] and CC(=O)Nc1ccc(N2[C@@H]3CC[C@H]2C[C@@H](NC(=O)C(C)(C)Oc2ccc(Cl)cc2Cl)C3)nc1 [Example 94, N-{8-[5-(acetylamino)pyridin-2-yl]-8-azabicyclo[3.2.1]oct-3-endo-yl}-2-[(2,4-dichlorophenyl)oxy]-2-methylpropanamide] cannot be ordered by IC50: less than 200 nM for the first, less than 200 nM for the second.

CC(C)(Oc1cc(F)c(Cl)cc1Cl)C(=O)N[C@H]1C[C@H]2CC[C@@H](C1)N2c1ccc(C(=O)NCC(F)(F)F)cn1 [Example 90, 6-[3-endo-({2-[(2,4-dichloro-5-fluorophenyl)oxy]-2-methylpropanoyl}amino)-8-azabicyclo[3.2.1]oct-8-yl]-N-(2,2,2-trifluoroethyl)pyridine-3-carboxamide] and CC(C)(Oc1cc(Cl)c(F)cc1Cl)C(=O)N[C@H]1C[C@H]2CC[C@@H](C1)N2c1ccc(C(=O)NCC(F)(F)F)cn1 [Example 98, 6-[3-endo-({2-[(2,5-dichloro-4-fluorophenyl)oxy]-2-methylpropanoyl}amino)-8-azabicyclo[3.2.1]oct-8-yl]-N-(2,2,2-trifluoroethyl)pyridine-3-carboxamide] cannot be ordered by IC50: less than 200 nM for the first, less than 200 nM for the second.

CC(C)(Oc1cc(F)c(F)cc1Cl)C(=O)N[C@H]1C[C@H]2CC[C@@H](C1)N2c1ccc(C(N)=O)cn1 [Example 96, 6-[3-endo-({2-[(2-chloro-4,5-difluorophenyl)oxy]-2-methylpropanoyl}amino)-8-azabicyclo[3.2.1]oct-8-yl]pyridine-3-carboxamide] and CC(C)(Oc1cc(Cl)c(F)cc1Cl)C(=O)N[C@H]1C[C@H]2CC[C@@H](C1)N2c1ccc(C(N)=O)cn1 [Example 99, 6-[3-endo-({2-[(2,5-dichloro-4-fluorophenyl)oxy]-2-methylpropanoyl}amino)-8-azabicyclo[3.2.1]oct-8-yl]pyridine-3-carboxamide] cannot be ordered by IC50: less than 200 nM for the first, less than 200 nM for the second.

CC(C)(Oc1ccc(F)c(Cl)c1Cl)C(=O)N[C@H]1C[C@H]2CC[C@@H](C1)N2c1ccc(C(N)=O)cn1 [Example 97, 6-[3-endo-({2-[(2,3-dichloro-4-fluorophenyl)oxy]-2-methylpropanoyl}amino)-8-azabicyclo[3.2.1]oct-8-yl]pyridine-3-carboxamide] and CC(C)(Oc1ccc(F)c(Cl)c1Cl)C(=O)N[C@H]1C[C@H]2CC[C@@H](C1)N2c1ccc(C(=O)NCC(F)(F)F)cn1 [Example 100, 6-[3-endo-({2-[(2,3-dichloro-4-fluorophenyl)oxy]-2-methylpropanoyl}amino)-8-azabicyclo[3.2.1]oct-8-yl]-N-(2,2,2-trifluoroethyl)pyridine-3-carboxamide] cannot be ordered by IC50: less than 200 nM for the first, less than 200 nM for the second.

CC(C)(Oc1ccc(Cl)cc1Cl)C(=O)N[C@H]1C[C@H]2CC[C@@H](C1)N2c1ccc(NS(C)(=O)=O)cn1 [Example 101, 2-[(2,4-dichlorophenyl)oxy]-2-methyl-N-(8-{5-[(methylsulfonyl)amino]pyridin-2-yl}-8-azabicyclo[3.2.1]oct-3-endo-yl)propanamide] and CC(C)(Oc1ccc(Cl)cc1Cl)C(=O)N[C@H]1C[C@H]2CC[C@@H](C1)N2c1cccnc1 [Example 106, 2-[(2,4-dichlorophenyl)oxy]-2-methyl-N-(8-pyridin-3-yl-8-azabicyclo[3.2.1]oct-3-endo-yl)propanamide] cannot be ordered by IC50: less than 200 nM for the first, less than 200 nM for the second.

NC(=O)c1ccc(N2[C@@H]3CC[C@H]2C[C@@H](NC(=O)C2(c4cccc(Cl)c4)CC2)C3)nc1 [Example 102, 6-[3-endo-({[1-(3-chlorophenyl)cyclopropyl]carbonyl}amino)-8-azabicyclo[3.2.1]oct-8-yl]pyridine-3-carboxamide] and NC(=O)c1ccc(N2[C@@H]3CC[C@H]2C[C@@H](NC(=O)C2(c4cccc(F)c4)CC2)C3)nc1 [Example 104, 6-[3-endo-({[1-(3-fluorophenyl)cyclopropyl]carbonyl}amino)-8-azabicyclo[3.2.1]oct-8-yl]pyridine-3-carboxamide] cannot be ordered by IC50: less than 200 nM for the first, less than 200 nM for the second.

NC(=O)c1ccc(N2[C@@H]3CC[C@H]2C[C@@H](NC(=O)C2(c4ccc(Cl)c(Cl)c4)CC2)C3)nc1 [Example 103, 6-[3-endo-({[1-(3,4-dichiorophenyl)cyclopropyl]carbonyl}amino)-8-azabicyclo[3.2.1]oct-8-yl]pyridine-3-carboxamide] and CC(C)(Oc1ncc(Cl)cc1Cl)C(=O)N[C@H]1C[C@H]2CC[C@@H](C1)N2c1ccc(C(=O)NCC(F)(F)F)cn1 [Example 107, 6-[3-endo-({2-[(3,5-dichloropyridin-2-yl)oxy]-2-methylpropanoyl}amino)-8-azabicyclo[3.2.1]oct-8-yl]-N-(2,2,2-trifluoroethyl)pyridine-3-carboxamide] cannot be ordered by IC50: less than 200 nM for the first, less than 200 nM for the second.
